Measured values from ChEMBL document CHEMBL1150977, “A quantitative analysis of kinase inhibitor selectivity” (Nat Biotechnol, 2008).

Columns and labels:
[1] = target: Ribosomal protein S6 kinase alpha-2 (Homo sapiens, UniProt Q15349)
[2] = target: Serine/threonine-protein kinase MARK1 (Homo sapiens, UniProt Q9P0L2)
[3] = target: MAP kinase-activated protein kinase 2 (Homo sapiens, UniProt P49137)
[4] = target: Mitogen-activated protein kinase kinase kinase kinase 5 (Homo sapiens, UniProt Q9Y4K4)
[5] = target: Serine/threonine-protein kinase PAK 5 (Homo sapiens, UniProt Q9P286)
[6] = target: Serine/threonine-protein kinase 25 (Homo sapiens, UniProt O00506)
[7] = target: T1, Cyclin-G-associated kinase (Homo sapiens, UniProt O14976)
T1 sequence (O14976 whole entry): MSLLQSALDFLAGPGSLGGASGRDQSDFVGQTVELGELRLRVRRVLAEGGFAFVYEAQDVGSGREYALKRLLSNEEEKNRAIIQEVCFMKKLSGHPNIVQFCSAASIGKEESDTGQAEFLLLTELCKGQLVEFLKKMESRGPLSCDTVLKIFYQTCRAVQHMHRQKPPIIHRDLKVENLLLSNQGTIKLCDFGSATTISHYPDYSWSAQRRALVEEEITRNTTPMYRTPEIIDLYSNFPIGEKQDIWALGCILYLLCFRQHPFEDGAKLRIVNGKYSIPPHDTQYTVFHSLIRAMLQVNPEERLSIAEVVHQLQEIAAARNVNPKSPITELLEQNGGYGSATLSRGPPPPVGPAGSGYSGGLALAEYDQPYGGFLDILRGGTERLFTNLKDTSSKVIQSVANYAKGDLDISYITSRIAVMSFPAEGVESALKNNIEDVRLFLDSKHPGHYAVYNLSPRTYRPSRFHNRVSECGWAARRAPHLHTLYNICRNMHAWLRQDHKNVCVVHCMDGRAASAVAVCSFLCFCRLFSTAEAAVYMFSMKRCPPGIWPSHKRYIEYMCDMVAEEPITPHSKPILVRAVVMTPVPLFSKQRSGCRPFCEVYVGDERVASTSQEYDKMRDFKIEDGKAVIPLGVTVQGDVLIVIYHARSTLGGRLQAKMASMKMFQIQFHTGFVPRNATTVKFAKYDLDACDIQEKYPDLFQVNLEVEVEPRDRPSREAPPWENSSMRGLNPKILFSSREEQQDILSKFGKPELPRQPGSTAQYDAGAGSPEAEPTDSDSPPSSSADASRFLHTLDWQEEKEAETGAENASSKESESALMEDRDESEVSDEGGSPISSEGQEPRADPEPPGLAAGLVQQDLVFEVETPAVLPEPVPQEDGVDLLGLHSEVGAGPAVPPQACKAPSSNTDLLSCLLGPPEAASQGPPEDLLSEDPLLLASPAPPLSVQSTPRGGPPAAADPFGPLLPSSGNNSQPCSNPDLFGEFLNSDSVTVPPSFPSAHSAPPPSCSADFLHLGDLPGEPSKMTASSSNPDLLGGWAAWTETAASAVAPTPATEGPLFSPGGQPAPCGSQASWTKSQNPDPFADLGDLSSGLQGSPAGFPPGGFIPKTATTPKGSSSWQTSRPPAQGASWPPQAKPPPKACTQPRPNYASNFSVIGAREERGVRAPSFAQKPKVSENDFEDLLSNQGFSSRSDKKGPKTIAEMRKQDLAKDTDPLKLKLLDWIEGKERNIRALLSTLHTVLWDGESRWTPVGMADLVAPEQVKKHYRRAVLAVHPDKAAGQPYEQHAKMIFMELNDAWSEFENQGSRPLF

[8] = target: T2, Muscle, skeletal receptor tyrosine-protein kinase (Homo sapiens, UniProt O15146)
T2 sequence (O15146 whole entry): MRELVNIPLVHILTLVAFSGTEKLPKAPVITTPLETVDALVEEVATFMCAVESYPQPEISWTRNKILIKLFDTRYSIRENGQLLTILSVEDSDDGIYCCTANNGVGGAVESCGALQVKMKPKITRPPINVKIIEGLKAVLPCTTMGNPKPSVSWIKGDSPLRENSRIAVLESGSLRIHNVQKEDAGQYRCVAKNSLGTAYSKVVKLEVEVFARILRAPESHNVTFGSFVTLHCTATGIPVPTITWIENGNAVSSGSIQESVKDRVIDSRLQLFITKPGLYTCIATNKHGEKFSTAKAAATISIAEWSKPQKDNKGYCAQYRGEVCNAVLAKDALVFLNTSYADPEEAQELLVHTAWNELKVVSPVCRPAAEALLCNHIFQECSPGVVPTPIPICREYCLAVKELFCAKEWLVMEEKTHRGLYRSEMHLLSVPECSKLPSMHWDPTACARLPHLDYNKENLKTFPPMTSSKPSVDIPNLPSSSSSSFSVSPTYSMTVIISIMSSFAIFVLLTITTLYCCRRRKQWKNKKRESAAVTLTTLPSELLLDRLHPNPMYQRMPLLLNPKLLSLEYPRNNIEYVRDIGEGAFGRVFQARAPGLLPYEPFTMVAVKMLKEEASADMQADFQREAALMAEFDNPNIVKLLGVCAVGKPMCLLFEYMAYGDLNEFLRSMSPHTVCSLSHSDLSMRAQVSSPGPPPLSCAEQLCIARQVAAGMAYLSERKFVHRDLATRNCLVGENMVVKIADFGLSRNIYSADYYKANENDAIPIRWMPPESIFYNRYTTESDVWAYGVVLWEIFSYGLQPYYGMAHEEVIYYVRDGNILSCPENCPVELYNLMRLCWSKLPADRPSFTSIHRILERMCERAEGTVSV

Activin receptor type-1B = target: T3, Activin receptor type-1B (Homo sapiens, UniProt P36896)
T3 sequence (P36896 whole entry): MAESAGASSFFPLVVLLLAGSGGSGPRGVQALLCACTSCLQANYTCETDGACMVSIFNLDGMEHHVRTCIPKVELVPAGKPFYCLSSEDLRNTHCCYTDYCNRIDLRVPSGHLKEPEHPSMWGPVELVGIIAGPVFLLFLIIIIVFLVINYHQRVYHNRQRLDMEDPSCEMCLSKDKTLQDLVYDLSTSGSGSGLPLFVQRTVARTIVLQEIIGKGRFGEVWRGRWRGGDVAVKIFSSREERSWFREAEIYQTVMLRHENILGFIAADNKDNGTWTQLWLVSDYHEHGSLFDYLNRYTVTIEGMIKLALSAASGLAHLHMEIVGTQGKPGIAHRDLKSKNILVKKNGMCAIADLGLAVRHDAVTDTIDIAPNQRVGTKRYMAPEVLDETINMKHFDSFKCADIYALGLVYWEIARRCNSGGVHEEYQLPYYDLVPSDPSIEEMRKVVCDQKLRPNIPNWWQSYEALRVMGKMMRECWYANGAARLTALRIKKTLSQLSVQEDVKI

Mitogen-activated protein kinase kinase kinase kinase 5, sequence (Q9Y4K4 whole entry): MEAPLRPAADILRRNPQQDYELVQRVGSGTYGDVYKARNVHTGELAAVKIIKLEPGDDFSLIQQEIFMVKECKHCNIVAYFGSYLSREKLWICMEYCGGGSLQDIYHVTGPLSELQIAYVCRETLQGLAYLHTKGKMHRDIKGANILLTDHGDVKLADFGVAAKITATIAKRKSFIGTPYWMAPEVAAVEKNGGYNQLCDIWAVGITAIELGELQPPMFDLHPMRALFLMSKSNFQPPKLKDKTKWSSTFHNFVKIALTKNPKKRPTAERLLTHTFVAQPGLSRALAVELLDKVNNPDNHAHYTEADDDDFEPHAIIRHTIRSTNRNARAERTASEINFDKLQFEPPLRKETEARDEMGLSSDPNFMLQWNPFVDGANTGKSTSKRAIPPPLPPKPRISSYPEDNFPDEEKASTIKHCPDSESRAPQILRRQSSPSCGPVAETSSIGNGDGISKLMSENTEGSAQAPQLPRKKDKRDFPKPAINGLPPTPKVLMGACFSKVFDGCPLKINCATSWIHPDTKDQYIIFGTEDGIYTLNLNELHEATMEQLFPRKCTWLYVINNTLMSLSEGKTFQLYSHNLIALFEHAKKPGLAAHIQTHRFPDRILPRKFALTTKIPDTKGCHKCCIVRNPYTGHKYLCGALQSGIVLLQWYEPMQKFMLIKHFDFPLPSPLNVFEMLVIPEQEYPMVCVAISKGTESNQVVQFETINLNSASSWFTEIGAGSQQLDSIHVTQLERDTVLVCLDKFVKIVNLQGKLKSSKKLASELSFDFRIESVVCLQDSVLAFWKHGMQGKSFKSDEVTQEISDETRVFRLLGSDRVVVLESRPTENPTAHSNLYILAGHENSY
Serine/threonine-protein kinase MARK1, sequence (Q9P0L2 whole entry): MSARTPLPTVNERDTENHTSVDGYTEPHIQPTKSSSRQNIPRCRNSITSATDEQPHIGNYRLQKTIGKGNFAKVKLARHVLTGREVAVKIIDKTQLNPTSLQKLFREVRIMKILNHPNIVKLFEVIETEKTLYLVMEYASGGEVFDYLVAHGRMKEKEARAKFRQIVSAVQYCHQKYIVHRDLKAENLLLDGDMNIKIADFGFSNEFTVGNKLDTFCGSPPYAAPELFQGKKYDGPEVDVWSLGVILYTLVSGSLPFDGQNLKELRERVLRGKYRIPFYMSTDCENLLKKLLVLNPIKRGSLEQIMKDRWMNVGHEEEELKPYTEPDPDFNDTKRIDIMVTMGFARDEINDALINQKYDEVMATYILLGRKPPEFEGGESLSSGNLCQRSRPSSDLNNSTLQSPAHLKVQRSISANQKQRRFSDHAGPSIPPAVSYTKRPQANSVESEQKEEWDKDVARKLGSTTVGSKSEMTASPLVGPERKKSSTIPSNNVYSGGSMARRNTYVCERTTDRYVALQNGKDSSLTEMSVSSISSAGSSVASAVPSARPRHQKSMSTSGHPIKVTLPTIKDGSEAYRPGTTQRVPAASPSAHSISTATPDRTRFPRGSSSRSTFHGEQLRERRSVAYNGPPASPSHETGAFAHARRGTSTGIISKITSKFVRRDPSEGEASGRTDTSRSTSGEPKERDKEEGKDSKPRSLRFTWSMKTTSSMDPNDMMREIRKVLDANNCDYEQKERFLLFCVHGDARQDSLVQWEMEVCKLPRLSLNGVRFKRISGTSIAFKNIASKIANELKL
MAP kinase-activated protein kinase 2, sequence (P49137 whole entry): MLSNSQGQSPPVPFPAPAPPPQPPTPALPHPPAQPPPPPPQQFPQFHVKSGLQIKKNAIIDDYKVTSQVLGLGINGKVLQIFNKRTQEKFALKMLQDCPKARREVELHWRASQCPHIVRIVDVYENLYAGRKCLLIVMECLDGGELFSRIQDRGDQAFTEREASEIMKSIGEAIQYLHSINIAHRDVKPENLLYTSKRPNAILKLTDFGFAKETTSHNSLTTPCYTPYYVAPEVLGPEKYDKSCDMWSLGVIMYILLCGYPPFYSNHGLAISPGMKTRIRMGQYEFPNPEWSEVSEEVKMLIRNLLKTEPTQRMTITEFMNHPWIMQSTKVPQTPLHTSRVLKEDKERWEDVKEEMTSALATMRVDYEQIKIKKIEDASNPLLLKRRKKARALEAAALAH
Serine/threonine-protein kinase PAK 5, sequence (Q9P286 whole entry): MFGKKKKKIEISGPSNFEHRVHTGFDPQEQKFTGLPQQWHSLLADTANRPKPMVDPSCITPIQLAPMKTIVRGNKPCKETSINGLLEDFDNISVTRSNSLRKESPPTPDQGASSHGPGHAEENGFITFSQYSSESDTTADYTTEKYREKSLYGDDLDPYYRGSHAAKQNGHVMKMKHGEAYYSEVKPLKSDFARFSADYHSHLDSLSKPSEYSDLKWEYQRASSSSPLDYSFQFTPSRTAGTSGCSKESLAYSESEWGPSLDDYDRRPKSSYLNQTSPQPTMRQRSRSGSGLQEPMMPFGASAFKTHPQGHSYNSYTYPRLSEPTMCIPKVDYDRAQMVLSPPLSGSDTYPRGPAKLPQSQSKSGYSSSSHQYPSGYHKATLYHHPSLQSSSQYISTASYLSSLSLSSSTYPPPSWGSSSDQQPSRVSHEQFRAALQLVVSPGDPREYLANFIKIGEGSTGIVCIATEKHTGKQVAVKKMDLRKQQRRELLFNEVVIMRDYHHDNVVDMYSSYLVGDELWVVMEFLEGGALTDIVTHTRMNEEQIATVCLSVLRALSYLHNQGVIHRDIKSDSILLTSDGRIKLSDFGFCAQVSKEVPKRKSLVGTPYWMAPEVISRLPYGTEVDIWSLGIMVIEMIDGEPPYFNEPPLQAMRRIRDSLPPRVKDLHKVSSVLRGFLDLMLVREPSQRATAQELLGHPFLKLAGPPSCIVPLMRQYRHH
Ribosomal protein S6 kinase alpha-2, sequence (Q15349 whole entry): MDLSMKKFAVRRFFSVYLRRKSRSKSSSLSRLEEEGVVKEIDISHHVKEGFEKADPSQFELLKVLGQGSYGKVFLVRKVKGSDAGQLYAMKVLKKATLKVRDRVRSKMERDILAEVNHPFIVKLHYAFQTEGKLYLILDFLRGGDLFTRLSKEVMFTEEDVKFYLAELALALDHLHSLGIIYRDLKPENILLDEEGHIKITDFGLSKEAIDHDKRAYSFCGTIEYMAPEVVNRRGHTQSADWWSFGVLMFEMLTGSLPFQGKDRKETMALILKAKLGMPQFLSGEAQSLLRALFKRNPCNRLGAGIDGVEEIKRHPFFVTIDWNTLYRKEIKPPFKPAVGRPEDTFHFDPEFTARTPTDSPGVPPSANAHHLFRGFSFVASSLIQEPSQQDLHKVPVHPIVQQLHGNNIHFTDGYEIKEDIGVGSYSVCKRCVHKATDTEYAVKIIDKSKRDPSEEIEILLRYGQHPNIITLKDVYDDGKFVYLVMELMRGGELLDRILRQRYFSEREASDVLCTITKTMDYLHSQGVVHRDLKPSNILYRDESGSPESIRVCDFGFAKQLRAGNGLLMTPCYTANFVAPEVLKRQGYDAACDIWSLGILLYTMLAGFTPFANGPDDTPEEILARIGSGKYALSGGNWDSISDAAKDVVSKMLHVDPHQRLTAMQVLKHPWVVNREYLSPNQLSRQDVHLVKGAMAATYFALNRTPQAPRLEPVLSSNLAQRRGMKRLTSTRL
Serine/threonine-protein kinase 25, sequence (O00506 whole entry): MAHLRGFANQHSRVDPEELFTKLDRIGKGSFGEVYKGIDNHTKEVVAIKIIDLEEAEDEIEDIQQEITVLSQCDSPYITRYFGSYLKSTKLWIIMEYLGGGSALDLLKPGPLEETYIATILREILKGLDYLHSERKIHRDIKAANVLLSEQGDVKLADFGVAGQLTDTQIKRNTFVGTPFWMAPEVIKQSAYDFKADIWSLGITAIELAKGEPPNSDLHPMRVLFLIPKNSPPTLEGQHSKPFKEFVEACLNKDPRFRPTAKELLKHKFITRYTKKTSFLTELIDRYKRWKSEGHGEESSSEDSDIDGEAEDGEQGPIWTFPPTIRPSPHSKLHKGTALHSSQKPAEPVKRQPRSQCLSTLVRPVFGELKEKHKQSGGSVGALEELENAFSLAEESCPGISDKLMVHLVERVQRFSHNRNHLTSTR

Structure (SMILES) | Kd [1] | Kd [2] | Kd [3] | Kd [4] | Kd [5] | Kd [6] | Kd [7] | Kd [8] | Kd (Activin receptor type-1B)
COCC(=O)NC/C=C/c1ccc2ncnc(Nc3ccc(Oc4ccc(C)nc4)c(C)c3)c2c1 [CP-724714] | > 10 µM | > 10 µM | > 10 µM | > 10 µM | > 10 µM | > 10 µM | > 10 µM | > 10 µM | > 10 µM
Nc1nc(Nc2ccc(S(N)(=O)=O)cc2)nn1C(=O)c1c(F)cccc1F [JNJ-7706621] | > 10 µM | – | > 10 µM | – | – | 0.36 µM | – | > 10 µM | > 10 µM
CCOc1cc2ncc(C#N)c(Nc3ccc(F)c(Cl)c3)c2cc1NC(=O)/C=C/CN(C)C [PELITINIB] | 8.7 µM | – | > 10 µM | 0.01 µM | > 10 µM | – | 0.0064 µM | > 10 µM | > 10 µM
Oc1ccc(-c2nc(-c3ccncc3)c(-c3ccc(F)cc3)[nH]2)cc1 [SB-202190] | > 10 µM | > 10 µM | > 10 µM | > 10 µM | > 10 µM | > 10 µM | – | > 10 µM | 0.95 µM
NC(=O)c1ccc(-c2nc(-c3ccc4c(c3)OCO4)c(-c3ccccn3)[nH]2)cc1 [SB-431542] | > 10 µM | > 10 µM | > 10 µM | > 10 µM | > 10 µM | > 10 µM | > 10 µM | > 10 µM | –
